Our source for the LC retention time values is the RepoRT retention time repository.

A short description of this data set: Waters ACQUITY UPLC BEH C18, 50 × 2.1 mm, 1.7 µm, 30 °C, 0.3 mL/min, estimated dead time 0.37 min; A: water + 0.3% formic acid; B: acetonitrile; gradient (min/%B) 0.5/5 3.5/20 5.5/25 7/57 8/90. Conditions: stereoisomer not certain.

As to `CCNC1C2CCC(C2)C1c1ccccc1` (stereo not given), the LC retention time was 4.97 min.
Consider `CNC(C)C(O)c1ccccc1` (stereo not given), for which the LC retention time is 2 min.
`CC(C)NCC(O)COc1cccc2ccccc12` (stereo not given): the LC retention time is 5.78 min.
On to `Cc1ccc(CC(C)N)cc1` (stereo not given), for which the LC retention time is 3.45 min.
Take `CC(=O)OCC(=O)C12N=C(C)OC1CC1C3CCC4=CC(=O)C=CC4(C)C3C(O)CC12C` (stereo not given): the LC retention time was 7.2 min.
As to `CC(C)NCC(O)COc1ccc(CCOCC2CC2)cc1` (stereo not given), the LC retention time was 6.11 min.
The same measure for `CC1CC2C(C(O)CC3(C)C2CCC3(O)C(=O)CO)C2(C)C=CC(=O)C=C12` (stereo not given): 6.78 min; for `NC(=O)CS(=O)C(c1ccccc1)c1ccccc1` (stereo not given): 6.01 min.
Take `CC(N)C(O)c1ccccc1` (stereo not given): the LC retention time is 1.7 min.
`CC(Cc1ccccc1)NC(C#N)c1ccccc1` (stereo not given): the LC retention time is 7.8 min.
Turning to `Cc1ccccc1CC(C)N` (stereo not given), the LC retention time was 3.25 min.
Regarding `COC(=O)C(c1ccccc1)C1CCCCN1` (stereo not given), the LC retention time was 3.9 min.
In the case of `CC(Cc1ccccc1)[n+]1cc(N=C([O-])Nc2ccccc2)on1` (stereo not given), the LC retention time is 7.25 min.
For the molecule `CCCC(=O)Nc1ccc(OCC(O)CNC(C)C)c(C(C)=O)c1` (stereo not given), the LC retention time is 3.71 min.
As for `COC12CCC3(CC1C(C)(O)C(C)(C)C)C1Cc4ccc(O)c5c4C3(CCN1CC1CC1)C2O5` (stereo not given), the LC retention time was 6.55 min.
The same measure for `CC(C)(C)NCC(O)COc1cccc2c1CCC(=O)N2` (stereo not given): 2.65 min.
Regarding `CNC(C)CCC=C(C)C` (stereo not given), the LC retention time was 3.6 min.
For `CC12CCC(=O)C=C1C=CC1C2CCC2(C)C1CCC21CCC(=O)O1` (stereo not given), the LC retention time was 7.63 min.
Take `CC12CCC(=O)C=C1CCC1C2C(=O)CC2(C)C1CCC2(O)C(=O)CO` (stereo not given): the LC retention time was 6.31 min.
With `CC(C)(C)NCC(O)COc1nsnc1N1CCOCC1` (stereo not given), the LC retention time is 3.62 min.
As for `CC(N)Cc1ccc(O)cc1` (stereo not given), the LC retention time was 1.17 min.
For `c1ccc(CN2CCNCC2)cc1`, the LC retention time is 0.67 min.
The same measure for `CC1(O)CCC2C3CCC4=CC(=O)CCC4=C3C=CC21C` (stereo not given): 7.12 min; for `NC(=O)c1ncn(C2OC(CO)C(O)C2O)c1N` (stereo not given): 0.58 min.
Consider `CC(CN1CCOCC1)C(C(=O)N1CCCC1)(c1ccccc1)c1ccccc1` (stereo not given), for which the LC retention time was 6.97 min.
The same measure for `CC(=O)Oc1c(C)cc(OCC(O)CNC(C)C)c(C)c1C` (stereo not given): 5.62 min; for `CC12C=CC(=O)C=C1CCC1C2C(=O)CC2(C)C1CCC2(O)C(=O)CO` (stereo not given): 6.12 min.
Consider `CC(C)c1c(CN(C)C(C)Cc2ccccc2)n(C)n(-c2ccccc2)c1=O` (stereo not given), for which the LC retention time was 6.48 min.
The result for `CCC(C)CC(C)N` (stereo not given) reads 2.87 min.
The result for `Cc1cccc(Nc2ccncc2S(=O)(=O)NC(=O)NC(C)C)c1` reads 6.02 min.
For the molecule `CC1C(c2ccccc2)OCCN1C` (stereo not given), the LC retention time was 2.55 min.
With `O=C(O)C(c1ccccc1)C1CCCCN1` (stereo not given), the LC retention time was 3.25 min.
Take `CNCC(C)c1ccccc1` (stereo not given): the LC retention time is 2.57 min.
As to `CCCCNc1cc(C(=O)O)cc(S(N)(=O)=O)c1Oc1ccccc1`, the LC retention time was 7.49 min.
On to `CC(Cc1ccccc1)NCCC#N` (stereo not given), for which the LC retention time is 2.77 min.
The same measure for `CCN(CC)C(=O)c1cccnc1`: 2.02 min; for `O=C1NC(=NC2CC2)OC1c1ccccc1` (stereo not given): 4.84 min.
On to `CC(Cc1ccccc1)N(C)C` (stereo not given), for which the LC retention time is 2.76 min.
For `COCCc1ccc(OCC(O)CNC(C)C)cc1` (stereo not given), the LC retention time was 3.81 min.
As to `C1CCc2nnnn2CC1`, the LC retention time was 2.4 min.
On to `COC(=O)CCc1ccc(OCC(O)CNC(C)C)cc1` (stereo not given), for which the LC retention time was 4.31 min.
In the case of `CCCC(Cc1ccccc1)N1CCCC1` (stereo not given), the LC retention time was 5.09 min.
Regarding `CCOC(=O)C1(c2ccccc2)CCN(C)CC1`, the LC retention time was 4.43 min.
`CC12CCC(=O)C=C1CCC1C2C(O)CC2(C)C1CCC2(O)C(=O)CO` (stereo not given): the LC retention time was 6.23 min.
`CNC(C)CC1CCCCC1` (stereo not given): the LC retention time is 4.4 min.
For `CCC1(c2ccc(N)cc2)CCC(=O)NC1=O` (stereo not given), the LC retention time was 2.2 min.
Regarding `C=CCc1ccccc1OCC(O)CNC(C)C` (stereo not given), the LC retention time was 5.93 min.
With `CC(C)(C)NCC(O)COc1cccc2c1CC(O)C(O)C2` (stereo not given), the LC retention time is 2.81 min.
Turning to `CNC(C)Cc1ccc2c(c1)OCO2` (stereo not given), the LC retention time is 2.73 min.
`CNC(C)Cc1ccc(O)cc1` (stereo not given): the LC retention time is 1.24 min.
The result for `CC(C)=CCN1CCC2(C)c3cc(O)ccc3CC1C2C` (stereo not given) reads 5.07 min; that for `CC(C)NCC(O)COc1cccc2[nH]ccc12` (stereo not given), 2.74 min.
The same measure for `CCC(=O)C(CC(C)N(C)C)(c1ccccc1)c1ccccc1` (stereo not given): 7.03 min; for `CC1NCCOC1c1ccccc1` (stereo not given): 2.51 min.
On to `CC12CCC3C(CCC4=CC(=O)C=CC43C)C1CCC(=O)O2` (stereo not given), for which the LC retention time was 6.56 min.
`CN1CCC23c4c5ccc(O)c4OC2C(=O)CCC3(O)C1C5` (stereo not given): the LC retention time is 1.21 min.
The same measure for `CCC1(O)CCC2C3CCC4=CC(=O)CCC4=C3C=CC21CC` (stereo not given): 7.79 min; for `C#CCN(C)C(C)Cc1ccccc1` (stereo not given): 3.38 min; for `CC(C)NCC(O)COc1ccc(COCCOC(C)C)cc1` (stereo not given): 5.03 min.
Take `CC(N)Cc1ccc2c(c1)OCO2` (stereo not given): the LC retention time was 2.5 min.
The result for `COc1ccc(CC(C)NCC(O)c2ccc(O)c(NC=O)c2)cc1` (stereo not given) reads 3.94 min; that for `CNC(C)(C)Cc1ccccc1`, 3.14 min; that for `O=C1CC2OCC=C3CN4CCC56c7ccccc7N1C5C2C3CC46` (stereo not given), 3.01 min.
`CNC(C)C(O)c1ccc(O)cc1` (stereo not given): the LC retention time is 0.65 min.
As for `C=CCOc1ccccc1OCC(O)CNC(C)C` (stereo not given), the LC retention time was 4.66 min.
The result for `CCNCC(O)c1cccc(O)c1` (stereo not given) reads 0.92 min; that for `CC(C)NCC(O)c1ccc(NS(C)(=O)=O)cc1` (stereo not given), 1.58 min; that for `CC(C)(C)NCC(O)c1cc(O)cc(O)c1` (stereo not given), 1.44 min.
On to `CC(Cc1ccccc1)N(C)Cc1ccco1` (stereo not given), for which the LC retention time is 4.46 min.
Turning to `CNC(C)Cc1ccccc1` (stereo not given), the LC retention time was 2.59 min.
The result for `CCC(C(=O)OCCN1CCOC(c2ccccc2)C1C)c1ccccc1` (stereo not given) reads 7.17 min.
Take `CN(C)C(=O)Oc1cc(OC(=O)N(C)C)cc(C(O)CNC(C)(C)C)c1` (stereo not given): the LC retention time was 4.59 min.
For the molecule `Nc1nc(N)c(-c2ccccc2)s1`, the LC retention time is 1.84 min.
On to `CNC(C)Cc1ccccc1OC` (stereo not given), for which the LC retention time is 3.3 min.
Take `CC=CC(=O)N(CCC)C(CC)C(=O)N(C)C` (stereo not given): the LC retention time was 5.92 min.
Consider `OC(c1ccccc1)(c1ccccc1)C1CCCCN1` (stereo not given), for which the LC retention time is 4.75 min.
As for `CC(=O)Nc1nnc(S(N)(=O)=O)s1`, the LC retention time is 1.78 min.
Consider `CC=CC(=O)N(CC)C(CC)C(=O)N(C)C` (stereo not given), for which the LC retention time is 4.55 min.
The result for `CC(Cc1ccc(O)cc1)NCC(O)c1cc(O)cc(O)c1` (stereo not given) reads 2.23 min; that for `COc1ccc2c3c1OC1C(O)C=CC4C(C2)N(C)CCC341` (stereo not given), 2.15 min; that for `CC1(C)OC2CC3C4CCC5=CC(=O)C=CC5(C)C4C(O)CC3(C)C2(C(=O)CO)O1` (stereo not given), 6.98 min.
The result for `O=C(c1ccc(OCCN2CCCCC2)cc1)c1c(-c2ccc(O)cc2)sc2cc(O)ccc12` reads 6.58 min.
For the molecule `CC(C)(C#N)c1cc(Cn2cncn2)cc(C(C)(C)C#N)c1`, the LC retention time is 6.91 min.
On to `CC(N)Cc1ccccc1` (stereo not given), for which the LC retention time is 2.37 min.
On to `O=C(O)CS(=O)C(c1ccccc1)c1ccccc1` (stereo not given), for which the LC retention time was 6.69 min.
As for `COC(=O)C1CC2=CC(=O)CCC2(C)C23OC2CC2(C)C(CCC24CCC(=O)O4)C13` (stereo not given), the LC retention time is 6.75 min.
On to `CC12Cc3c([nH][nH]c3=O)CC1CCC1C2CCC2(C)C1CCC2(C)O` (stereo not given), for which the LC retention time was 6.7 min.
For the molecule `CC(N)CCCC(C)(C)O` (stereo not given), the LC retention time was 1.29 min.
Regarding `C#CC1(O)CCC2C3C(C)CC4=C(CCC(=O)C4)C3CCC21C` (stereo not given), the LC retention time was 7.51 min.
Consider `CC12Cc3cn[nH]c3C(O)C1CCC1C2CCC2(C)C1CCC2(C)O` (stereo not given), for which the LC retention time is 6.7 min.
Take `CC(CCc1ccccc1)NCC(O)c1ccc(O)c(C(N)=O)c1` (stereo not given): the LC retention time is 5.1 min.
As to `CCN(CC)C(C)C(=O)c1ccccc1` (stereo not given), the LC retention time was 2.73 min.
Turning to `NC(=O)CN1CC(c2ccccc2)CC1=O` (stereo not given), the LC retention time is 3.86 min.
Consider `Cc1cc2c(OCC(CNC(C)(C)C)OC(=O)c3ccccc3)cccc2[nH]1` (stereo not given), for which the LC retention time is 6.95 min.
The result for `OCc1cc(C(O)CNCCCCCCOCCCCc2ccccc2)ccc1O` (stereo not given) reads 7.12 min.
The result for `CC(C)(N)Cc1ccccc1` reads 2.91 min; that for `CN1CCC23c4c5ccc(O)c4OC2C(=O)CCC3C1C5` (stereo not given), 1.48 min; that for `CC(C(O)c1ccccc1)N(C)C` (stereo not given), 2.2 min.
As for `C#CC1(O)CCC2C3CCC4=Cc5oncc5CC4(C)C3CCC21C` (stereo not given), the LC retention time is 8.13 min.
In the case of `CC(Cc1ccccc1)NCCn1cnc2c1c(=O)n(C)c(=O)n2C` (stereo not given), the LC retention time was 4.01 min.
`COc1ccc2c3c1OC1C(=O)CCC4(O)C(C2)N(C)CCC314` (stereo not given): the LC retention time is 2.47 min.
For the molecule `CN1CCC23c4c5ccc(O)c4OC2C(O)C=CC3C1C5` (stereo not given), the LC retention time is 1.1 min.
The same measure for `COc1ccccc1OCCNCC(O)COc1cccc2[nH]c3ccccc3c12` (stereo not given): 6.81 min.
As for `N=C1NC(=O)C(c2ccccc2)O1` (stereo not given), the LC retention time was 2.7 min.
The same measure for `C#CC1(O)CCC2C3CCC4=CC(=O)CCC4=C3C=CC21CC` (stereo not given): 7.47 min.
